# Results: patent US20050058658A1, “Compositions and methods for immunotherapy of human immunodeficiency virus (HIV)” (priority 2003, published 2005)
# Where no end group is shown, it is not given here.
# Tested on: Mouse sarcoma 180 cells
# Assay: not given
# Type: cell-based
# Conditions: not given
# Protocol: In one embodiment, a NK cell assay is used to assess ARP-induced cytotoxic activity of NK-like cells. Briefly, by way of example but not limitation, a NK cell assay can be carried out as follows: large granular lymphocytes (LGLs) are co-cultured with tumor cells at various ratios (effector to target ratio) for four days at 37° C., 5% CO2. […] The culture is terminated at the end of day 4 and vitally stained using a MTT cell viability quantification assay (see Mossman, T. J. Immunol. Methods 1983, 65:55; and Sigma Chemical MTT (M5655) product application note). Culture media is aspirated and the remaining cells are washed and replaced with DMEM/F12 plus FCS, containing MTT. The cells are further incubated for 4-5 hours at 37° C. Absorbance is measured with the aid of a plate reader. Decreased absorbance indicated a decrease in the number of viable cells per well (i.e., cytotoxicity). Absorbance is measured again after the MTT is solubilized by replacement of the medium with 2-propanol containing HCl, which gives a uniform color throughout the well. NK-inducing activity is calculated relative to negative (PBS/BSA) and positive (internal standard) controls.
# Spleens (10-15 per experiment) were aseptically removed from male Balb/C mice 6-10 weeks of age. Splenocytes were “squeezed” out of spleens using 2 sterile glass microscope slides. Cells were collected in approximately 10 ml of DMEM/F12 containing 10% fetal calf serum (FCS) and gentamicin (50 μg/ml). Single cell suspensions were generated by passing collected cells through a 70 μm nylon mesh screen. After washing the cell pellet once with PBS (centrifuged at 675×g for 5 min), red blood cells were lysed by brief hypotonic shock (i.e. exposure to sterile distilled, deionized water, followed immediately with appropriate volumes of 10×PBS to return to isotonicity). Remaining cells were centrifuged and resuspended in DMEM/F12+10% FCS and transferred to 75 cm^2 flasks each containing 25 mls DMEM/F12+10% FCS (cells from 5 spleens per flask). The cells were incubated for 60 min. at 37° C. to selectively remove readily adherent cells (mainly fibroblasts and macrophages). After the incubation, the flasks were gently shaken and the non-adherent cells were removed, pelleted by centrifugation, and resuspended in DMEM/F12 (no supplements) (1.0 mL/10^8 cells). A 1.0 mL volume of these cell suspensions were carefully layered onto a 70%/60%/40% (2 mL/4 mL/4 mL) Percoll™ gradients in 15 ml centrifuge tubes and centrifuged for 30 min at 675×G. The cells which sediment at the 40/60 interface represent primarily large granular lymphocytes (LGLs), enriched with NK cells. These cells were carefully removed with a pasteur pipet, centrifuged, washed once with PBS and resuspended in approximately 5 mL DMEM/F12 supplemented with gentamicin (50 μg/mL) and 10% fetal calf serum. Cell counts and appropriate dilutions of LGL cells were made with these cells, as described below. For convenience this LGL cell preparation is interchangeably referred to as NK cells.
# Mouse sarcoma 180 cells were seeded into 96 well plates at a density of 5×10^3 cells per well in 100 μl DMEM/F12, supplemented with 10% FCS and gentamicin (50 μg/mL). […] NK cells were added in 100 μL of supplemented DMEM/F12 at designated densities: 0 NK cells/well; 5×10^4 NK cells/well (1:10 target/effector ratio); 1.25×10^5 NK cells/well (1:25 target/effector ratio); 2.5×10^5 NK cells/well (1:50 target/effector ratio); and, 5×10^5 NK cells/well (1:100 target/effector ratio). (Note: routinely, only the 1:50 and 1:100 ratios were used for screening purposes. IL2 was added as a media supplement with final concentration of 125 U/mL.). Co-cultures were incubated for 4 days at 37° C., 5% CO2, and terminated and vitally stained using a MTT cell viability quantification assay (see Mossman, T. J. Immunol. Methods 65:55 (1983); and Sigma Chemical MTT (M5655) product application note). […]
Molecule,NK-inducing activity,"maximal response, cytotoxicity",Effect on NK-CMC (footnotes of Table 16)
IFNγ: Interferon gamma,slight increase in NK-CMC,^6Weakly activates NK cells in the presence of IL-2 (maximal response < 50% cytotoxicity).,
"IL-12: Interleukin 12 (protein, UniProt P43431 23-215; P43432 23-335, looked up) Interleukin-12 subunit alpha: RVIPVSGPARCLSQSRNLLKTTDDMVKTAREKLKHYSCTAEDIDHEDITRDQTSTLKTCLPLELHKNESCLATRETSSTTRGSCLPPQKTSLMMTLCLGSIYEDLKMYQTEFQAINAALQNHNHQQIILDKGMLVAIDELMQSLNHNGETLRQKPPVGEADPYRVKMKLCILLHAFSTRVVTINRVMGYLSSA Interleukin-12 subunit beta: MWELEKDVYVVEVDWTPDAPGETVNLTCDTPEEDDITWTSDQRHGVIGSGKTLTITVKEFLDAGQYTCHKGGETLSHSHLLLHKKENGIWSTEILKNFKNKTFLKCEAPNYSGRFTCSWLVQRNMDLKFNIKSSSSSPDSRAVTCGMASLSAEKVTLDQRDYEKYSVSCQEDVTCPTAEETLPIELALEARQQNKYENYSTSFFIRDIIKPDPPKNLQMKPLKNSQVEVSWEYPDSWSTPHSYFSLKFFVRIQRKKEKMKETEEGCNQKGAFLVEKTSTEVQCKGGNVCVQAQDRYYNSSCSKWACVPCRVRS",,,synergistically increases NK-CMC at low concentrations of IL-2

# Same assay, conditions: same conditions as BEX
row,Molecule,Enhancement of NK-CMC compared to BEX
1,IFNγ: Interferon gamma,relatively weak enhancers

# Same assay, conditions: wide range of concentrations, in the presence and absence of IL-2 (125 U/ml)
row,Molecule,NK-CMC Activity
1,"Cecropin A: defensin / anti-microbial peptide (KWKLFKKIEKVGQNIRDGIIKAGPAVAVVGQATQIAK; UniProt P01507 27-63, looked up)",−
2,"Cecropin B: defensin / anti-microbial peptide (KWKVFKKIEKMGRNIRNGIVKAGPAIAVLGEAKAL; ends and bridges not checked; UniProt P01508 27-61, looked up)",−
3,Cecropin P1,−
4,FGFbasic: growth factor,−
5,IFNα,−
6,IL-5: interleukin,−
7,IL-15: interleukin,−
8,JE/MCP-1: chemokine,−
9,Magainin I,−
10,Magainin II,−
11,TGFα: growth factor,−
12,"IL-4: interleukin (protein, UniProt P07750 21-140, looked up) Interleukin-4: HIHGCDKNHLREIIGILNEVTGEGTPCTEMDVPNVLTATKNTTESELVCRASKVLRIFYLKHGKTPCLKKNSSVLMELQRLFRAFRCLDSSISCTMNESKSTSLKDFLESLKSIMQMDYS",−
13,"MIP-1α: chemokine (protein, UniProt P10855 24-92, looked up) C-C motif chemokine 3: APYGADTPTACCFSYSRKIPRQFIVDYFETSSLCSQPGVIFLTKRNRQICADSKETWVQEYITDLELNA",−
14,"IL-7: interleukin (protein, UniProt P10168 26-154, looked up) Interleukin-7: ECHIKDKEGKAYESVLMISIDELDKMTGTDSNCPNNEPNFFRKHVCDDTKEAAFLNRAARKLKQFLKMNISEEFNVHLLTVSQGTQTLVNCTSKEEKNVKEQKKNDACFLKRLLREIKTCWNKILKGSI",−
15,"KC: chemokine (protein, UniProt P12850 25-96, looked up) Growth-regulated alpha protein: APIANELRCQCLQTMAGIHLKNIQSLKVLPSGPHCTQTEVIATLKNGREACLDPEAPLVQKIVQKMLKGVPK",−
16,"IL-11: interleukin (protein, UniProt P20809 22-199, looked up) Interleukin-11: PGPPPGPPRVSPDPRAELDSTVLLTRSLLADTRQLAAQLRDKFPADGDHNLDSLPTLAMSAGALGALQLPGVLTRLRADLLSYLRHVQWLRRAGGSSLKTLEPELGTLQARLDRLLRRLQLLMSRLALPQPPPDPPAPPLAPPSSAWGGIRAAHAILGGLHLTLDWAVRGLLLLKTRL",−

# Tested on: freshly isolated dendritic cells (CD11c+ splenocytes)
# Assay: Dendritic cell (DC) assay: IL-12 release
# Type: cell-based, BALB/c mice
# Conditions: not given
# From the text: In a preferred embodiment, dendritic cell (DC) assay is used to follow interleukin-12 (IL-12) release from freshly isolated dendritic cells as an index of DC activation (see section 13). […] Briefly, by way of example but not limitation, a DC assay can be carried out as follows: freshly isolated dendritic cells (CD11c^+ splenocytes, e.g., isolated from the spleens of BALB/c mice within ten hours of assaying the activity) are suspended at a density of 0.5×10^6 cells per mL in cytokine supplemented culture media (GM-CSF, 1.0 ng/ml; IL-4, 1.0 ng/ml; IFNg, 3 ng/ml; anti mouse CD40; 0.5 mg/ml). […] Mouse IL-12 release from the dendritic cells (CD11c^+ splenocytes) is then measured using ELISA.
# DCs were isolated from the spleens of male BALB/c mice 8-12 weeks of age (Harlan Bioproducts for Science, Indianapolis, Ind.), using the magnetic assisted cell separation (MACS) system purchased from Miltenyi Biotech. In summary: Spleens were aseptically removed from mice and placed into a petri dish containing 5 mL holding media (DMEM/F12 supplemented with 10% FCS and antibiotics). Each spleen was then injected with ˜0.5 mls collagenase D solution (1 mg/mL in 10 mM Hepes-NaOH, pH 7.4, 150 mM NaCl, 5 mM MgCl2, 1.8 mM CaCl2), placed into 5-10 mL collagenase D, cut into 5-6 pieces and incubated at 37° C. for 45-60 min. Collagenase-digested spleens were then processed with glass slides and passed through a 70 μm nylon mesh cell strainer. After the strainer was flushed with 40 mL culture media, cells were centrifuged (8 min @ 200×G), suspended in 1 mL PBS and subjected to red blood cell lysis by incubating the cell suspension for 5 min at room temperature in 10 mL lysis buffer (155 mM NH4Cl, 10 mM KHCO3, 0.1 mM EDTA), followed by dilution in PBS to 50 mL and centrifugation (8 min @ 200×g). The splenocytes were then suspended in 10 mL MACS buffer (PBS pH 7.2, supplemented with 2 mM EDTA and 0.5% BSA), passed through a 40 μm nylon mesh cell strainer which was flushed with 40 mL MACS buffer. A preliminary cell count was taken at this time, prior to centrifugation (8 min @ 200×G). The splenocytes were suspended at a density of 10^8 cells per 400 μL MACS buffer. Paramagnetic MicroBeads coated with anti-CD11c antibody were mixed with the splenocyte suspension (100 μL per 10^8 cells), incubated at +4° C. for 15 min, washed, suspended in 1.0 mL MACS buffer and passed through a MS+separation column placed within a strong magnetic field. CD11c^+ cells were retained in the column whereas CD11c^− cells were washed off the column as the flow-through cell fraction. CD11c^+ cells were then collected by removing the column out of the magnetic field and flushing the column twice with 1 mL of MACS buffer. CD11c^+ cells were washed once with culture media and suspended at a density of 0.5×10^6 cells per mL in cytokine supplemented culture media {DMEM/F12 supplemented with 10% FCS and gentamicin containing mouse GM-CSF (1 ng/mL), mouse IL-4 (1 ng/mL), mouse IFNγ (3 ng/mL) and anti mouse CD40 (0.5 mg/mL)}.
# Mouse IL12 release from CD11c^+ splenocytes was measured using ELISA. Briefly, CD11c+ cell culture supernatants were sampled following an overnight incubation (usually 15-18 hrs). Media samples (100 μL) were added to ELISA plates coated with anti mouse IL12 (p70) capture antibody (R&D #MAB419; 250 ng in 100 μL per well) and incubated either at 37° C. or room temperature for 2 hrs. The ELISA plates were washed extensively with wash buffer after which 100 μL per well of detection antibody/detection reagent (biotinylated anti-mouse IL12; R&D #BAF419 at 50 ng/mL and streptavidin-HRP) was added. The ELISA plates were again incubated for 2 hours, washed and exposed to […] substrate solution (Pierce #34021) for 20 min. The substrate reaction was stopped by adding 100 μL/well 2M H2SO4. ELISA plates were read at 450 nm (corrected at 540 nm) and mIL12(p70) levels were calculated using an intra-ELISA standard curve (range: 2000-31.25 pg/mL).
row,Molecule,Inhibition of DC-activity induced by crude ARP preparations
1,[Ca+2].[Cl-].[Cl-] [CaCl2],did not
2,[Cl][Cu][Cl] [CuCl2],inhibition of activity in mM-μM concentration range
3,[Cl-].[Cl-].[Mg+2] [MgCl2],did not
4,[Cl-].[Cl-].[Zn+2] [ZnCl2],inhibition of activity in mM-μM concentration range

# Same assay, conditions: tested for synergism and inhibition
row,Molecule,DC/mIL12 Release
1,FGFbasic: growth factor,−
2,IFNγ: Interferon gamma,−
3,IL-5: interleukin,−
4,"IL-18: interleukin (protein, UniProt P70380 36-192, looked up) Interleukin-18: NFGRLHCTTAVIRNINDQVLFVDKRQPVFEDMTDIDQSASEPQTRLIIYMYKDSEVRGLAVTLSVKDSKMSTLSCKNKIISFEEMDPPENIDDIQSDLIFFQKRVPGHNKMEFESSLYEGHFLACQKEDDAFKLILKKKDENGDKSVMFTLTNLHQS",−
